Assays:
BM cells = conditions: 100 ng intraperitoneal for 3 consecutive days; 2 months after BMT; versus control BMT
Description: To examine the effect of VEGF on BM cell mobilization, we injected the mice with 100 ng VEGF-C intaperitoneally for 3 days.
Freshly isolated BM cells or PB cells were subjected to FluoReporter lacZ Flow Cytometry Kit (Molecular Probes, OR) or stained with acetylated low-density lipoprotein (LDL) labeled with 1′-dioctadecyl1-1,3,3,3′-tetramethyl-indocarbocyanine; Di-I (Biomedical Technologies Inc, MA) as described previously [13]. Analysis was performed on a FACStar flow cytometer (Becton Dickinson) and Cell Quest Software counting 10,000 events per sample.
Accordingly, we treated recipient mice with VEGF protein and analyzed the kinetics of mobilization of BM cells by FACS analysis.
The means±S.E. from 9 independent experiments are presented. *, p<0.01, **, p<0.05 versus control BMT (FIG. 2A).

EPC [1] = test: β-galactosidase activity in EPC transduced with type 2 AAV, with or without genistein; format: cell-based, rats
Description: (§1) EPC Culture and Expansion. Peripheral blood (about 1 ml) was obtained from the hearts of rats and mononuclear cells were isolated by density gradient centrifugation and cultured for 5 days. EPC were expanded ex vivo as described above.
(§2) Transduction of EPC. EPC cultures were infected with type 2 AAV-lacZ (also referred to herein as AAV-lacZ(+)) (control) vectors or AAV-IGF-1 vectors, prepared as described above, using approximately 3000 particles/cell. Some cultures were treated for about 1 hour with genistein, a specific inhibitor of cellular protein tyrosine kinases, (2-40 μM, preferably about 20 μM). Control vectors used in the genistein experiments also included AAV vector without lacZ, designated AAVlacZ(−).
AAV-IGF-1 mRNA expression in EPCs was determined by RT-PCR assay using primers specific for human IGF-1 sequences. The primer sequences used in these studies are as shown:
To determine whether efficiency of rAAV transduction of cultured EPC can be enhanced by inhibiting protein tyrosine kinases in these cells, some EPC cultures were pretreated with genestein prior to infection with rAAV, as described above. Referring to FIG. 5, in cultures infected with AAVlacZ(−) control vector, β-gal activity was negligible. In cultures infected with AAVlacZ(+) without or with pretreatment with 20 μM genistein, β-gal activity was 3.35 vs. 12.09, respectively. […]

EPC [2] = test: RT-PCR assay of AAV-IGF-1 mRNA expression in transduced EPC, with or without genistein; format: cell-based, rats
Description: as §1, §2
One week after infection, the cells were analyzed for β-galactosidase activity. AAV-IGF-1 mRNA expression in EPCs was determined by RT-PCR assay using primers specific for human IGF-1 sequences. The primer sequences used in these studies are as shown: […]

## VEGF
BM cells
  β-gal expression in both PB and BM of recipient mice: significantly increased

## O=c1c(-c2ccc(O)cc2)coc2cc(O)cc(O)c12 [genistein]
EPC [1]; 20 μM genistein versus no genistein, AAVlacZ(+)
  increase of lacZ activity by genistein: approximately four-fold
EPC [1]; 14 days after transduction, AAVlacZ(+)-infected EPC pretreated with 20 μM genistein
  β-gal activity: 12.09
EPC [2]; AAV-IGF-1 transduced EPC following treatment with genistein
  AAV-mediated IGF-1 expression (mRNA, RT-PCR): 206.1 units
EPC [2]; genistein versus no genistein
  increase of IGF-1 expression from AAV by genistein: about seven-fold

— patent publication US20100028312A1, “Stably transformed bone marrow-derived cells and uses thereof” (Caritas St. Elizabeth Medical Center of Boston Inc, priority 2005, published 2010)
